Test results taken from patent US20040077689A1, “Abc expression promoters” (priority 2001, published 2004).
Where a name gives a salt, the structure may show the parent alone.

Assays:
Type in all cases: cell-based
[1] = tested on: ABCA1 mRNA; experiment: Expression modulatory activity for ABCA1 mRNA in human monocyte-derived cells; conditions: THP-1 cells, test compound 1 μM, 24 hours; Not added = 100.0; Mean ± SEM (n = 3)
Description: (§1) To a PMA (phorbol 12-myristate 13-acetate, 400 ng/mL)-FBS (fetal bovine serum, 10%)-containing RPMI medium was suspended human monocyte -derived THP-1 cells (ATCC) (7×10^5 cell/mL), and the obtained suspension was dispensed into a 24-well plate (0.5 mL/well) and cultured for 3 days. After removing the medium, a FBS (fetal bovine serum, 10%)—containing RPMI1640 medium into which a test compound (1 μM) had been added was added to the 24-well plate and the plate was cultured for 24 hours. Whole RNA was extracted from the cultured cells using RNeasy Mini Kit (QIAGEN), and then the expression amounts of LXRα mRNA, ABCA1 mRNA, ABCG1 mRNA and Human acidic ribosomal protein (huPO; 36B4) mRNA as an internal standard were measured by real-time quantitative RT-PCR according to TaqMan PCR method using a TaqMan EZ RT-PCR kit (Applied Biosystems). […]
(§2) The expression amount of Human acidic ribosomal protein (huPO; 36B4) mRNA was measured using Pre-Developed TaqMan Assay Reagents Endogenous Control (Human Acidic ribosomal protein (huPO)) (Applied Biosystems), and VIC was used as a reporter dye and TAMRA was used as a quencher dye. […]

[2] = tested on: LXRα mRNA; experiment: Expression modulatory activity for LXRα mRNA in human monocyte-derived cells; conditions: THP-1 cells, test compound 1 μM, 24 hours; Not added = 100.0; Mean ± SEM (n = 3)
Description: as §1, §2

[3] = tested on: CEH mRNA; experiment: Expression modulatory activity for CEH mRNA in human monocyte-derived cells; conditions: THP-1 cells, test compound 1 μM, 2 days + 1 day; Not added = 100.0; Mean ± SEM (n = 3)
Description: (§3) In a RPMI medium containing a test compound (1 μM), PMA (phorbol 12-myristate 13-acetate, 400 ng/mL)-FBS (fetal bovine serum, 10%) was suspended human monocyte-derived THP-1 cells (purchased from Dainippon Pharmaceutical Co., Ltd.) (7.2×10^5 cell/mL). The obtained suspension was dispensed into a 24 well plate (0.5 mL/well) and cultured for 2 days (3.6×10^5 cells). After the medium was removed, a RPMI medium containing the test compound (1 μM), PMA(400 ng/mL)-FBS(10%) was added to the plate and it was cultured further for 1 day.
(§4) After the medium was removed, whole RNA was extracted from the obtained cells using RN easy Mini Kit (QIAGEN), and the expression amounts of ACAT-1 mRNA, CEH mRNA and human acidic ribosomal protein (huPO; 36B4) mRNA as an internal standard were measured by real-time quantitative RT-PCR according to TaqMan PCR method using a TaqMan EZ RT-PCR kit (Applied Biosystems).
Furthermore, for the measurement of the expression amount of the CEH mRNA, oligo DNAs represented by
5′-AGCCCTTGGCTGAGCAAA-3′ (SEQ ID NO: 22),
5′-GTCGCAGGCAGTGAACCAT-3′ (SEQ ID NO: 23) and
5′-[…]-3′ (SEQ ID NO: 24) […]
(§5) The expression amount of human acidic ribosomal protein (huPO; 36B4) mRNA was measured according to the method similar to Experimental Example 1. Real-time quantitative RT-PCR was carried out similarly to Experimental Example 1. […]

[4] = tested on: ACAT-1 mRNA; experiment: Expression modulatory activity for ACAT-1 mRNA in human monocyte-derived cells; conditions: THP-1 cells, test compound 1 μM, 2 days + 1 day; Not added = 100.0; Mean ± SEM (n = 3)
Description: as §3, §4
In the above mentioned method, for the measurement of the expression amount of the ACAT-1mRNA, oligo DNAs represented by
5′-[…]-3′ (SEQ ID NO: 19),
5′-[…]-3′ (SEQ ID NO: 20) and […]
as §5

[5] = tested on: LXRα mRNA; experiment: Expression modulatory activity for LXRα mRNA in mouse macrophages; conditions: C57BL6/J mouse peritoneal macrophages, test compound 1 μM, 24 hours; Not added = 100.0; Mean ± SEM (n = 3)
Description: (§6) A C57BL6/J mouse (male, 10 weeks old) was intraperitoneally administered with 1 mL of a 5% thioglycolic acid medium (Wako Pure Chemical Industries, Ltd.). After 4 days, intraperitoneal cells were collected with phosphate-buffered saline (PBS), and macrophages were separated in a 3% BSA-containing DMEM medium as cells adhesive to a plate. After incubation of the macrophages overnight in a DMEM medium containing 10% human lipoprotein-removed serum, the medium was replaced with a DMEM medium containing a test compound (1 μM) and 10% fetal bovine serum and cultured for 24 hours.
(§7) After the medium was removed, whole RNA was extracted from the obtained macrophage using RNeasy Mini Kit (QIAGEN) and then the expression amounts of the LXRαmRNA, ABCG1mRNA and mouse acidic ribosomal protein (36B4) mRNA as an internal standard were measured by real-time quantitative RT-PCR according to TaqMan PCR method using a TaqMan EZ RT-PCR kit (Applied Biosystems). […]
(§8) Real-time quantitative PCR was carried out according to the similar manner to Experimental Example 1.
(§9) Based on the ratio of the expression amount of the LXRαmRNA and ABCG1mRNA relative to the internal standard (expression amount of mouse acidic ribosomal protein mRNA), the expression modulatory activities for the LXRα mRNA and ABCG1 mRNA of the test compound were evaluated.

[6] = tested on: ABCG1 mRNA; experiment: Expression modulatory activity for ABCG1 mRNA in human monocyte-derived cells; conditions: THP-1 cells, test compound 1 μM, 24 hours; Not added = 100.0; Mean ± SEM (n = 3)
Description: as §1, §2

[7] = tested on: human monocyte-derived THP-1 cells; experiment: Foaming-suppressant activity in human monocyte-derived cells (intracellular lipid content); conditions: for Intracellular lipid content FC (free cholesterol) / Intracellular lipid content TC (total cholesterol) / Intracellular lipid content CE (cholesteryl ester): test compound 1 μM, rabbit β-VLDL loading 2 days; for Intracellular lipid content FC (free cholesterol): Not added = 80.8 ± 1.2, Mean ± SEM (n = 3); for Intracellular lipid content TC (total cholesterol): Not added = 114.8 ± 1.8, Mean ± SEM (n = 3); for Intracellular lipid content CE (cholesteryl ester): calculated as TC minus FC, Not added = 34.0 ± 2.3, Mean ± SEM (n = 3)
Description: In a RPMI1640 medium containing a test compound (1 μM), PMA (phorbol 12-myristate 13-acetate, 400 ng/ml) and 10% fetal bovine serum was suspended human monocyte-derived THP-1 cells (purchased from Dainippon Pharmaceutical Co., Ltd.). The obtained suspension was dispensed into a 12-well plate (7.2×10^5 cells) and was cultured for 3 days. The obtained cell was further cultured in a RPMI1640 medium containing the test compound and 0.2 mM oleic acid-0.2% bovine serum albumin complex and rabbit β-VLDL (200 μg cholesterol/mL) for 2 days, and then the total lipids in the cells were extracted with a mixed solution of n-hexane/isopropanol (3:2). The amounts of the total cholesterol (TC) and free cholesterol (FC) in the extract were measured with a enzyme method [using Cholesterol E-Test Wako (trade name, Wako Pure Chemical Industries, Ltd.)], and the amount of cholesteryl ester (CE) was calculated by the difference between the two cholesterol amounts. The intracellular lipid content was then evaluated by dividing the amounts of these lipids by the amount of cell protein (measured using BCA assay kit (Pierce)). In the Table, TC represents total cholesterol, FC represents free cholesterol and CE represents cholesteryl ester.

[8] = tested on: ABCG1 mRNA; experiment: Expression modulatory activity for ABCG1 mRNA in mouse macrophages; conditions: C57BL6/J mouse peritoneal macrophages, test compound 1 μM, 24 hours; Not added = 100.0; Mean ± SEM (n = 3)
Description: as §6, §7, §8, §9

| Compound | Expression amount of mRNA (Relative ratio % to internal standard) ABCA1 [1] [%] | Expression amount of mRNA (Relative ratio % to internal standard) LXRα [2] [%] | Expression amount of mRNA (Relative ratio % to internal standard) CEH [3] [%] | Expression amount of mRNA (Relative ratio % to internal standard) ACAT-1 [4] [%] | Expression amount of mRNA (Relative ratio % to internal standard) LXRα [5] [%] | Expression amount of mRNA (Relative ratio % to internal standard) ABCG1 [6] [%] | Intracellular lipid content FC (free cholesterol) [7] [μg/mg cell protein] | Intracellular lipid content TC (total cholesterol) [7] [μg/mg cell protein] | Intracellular lipid content CE (cholesteryl ester) [7] [μg/mg cell protein] | Expression amount of mRNA (Relative ratio % to internal standard) ABCG1 [8] [%] | foaming-suppressant activity ([7]; conclusion based on the decrease in the amount of cholesteryl ester, 1 μM) |
| --- | --- | --- | --- | --- | --- | --- | --- | --- | --- | --- | --- |
| CCc1ccc(CCOc2ccc(CC3SC(=O)NC3=O)cc2)nc1 (stereo not drawn) [Pioglitazone hydrochloride, reference compound] | 108.2 ± 3.5 | 165.7 ± 4.6 | 148.6 ± 9.2 | 65.8 ± 1.9 | 145.3 ± 17.9 | 252.0 ± 9.2 | 72.7 ± 0.4 | 100.3 ± 0.3 | 27.6 ± 0.5 | 195.2 ± 23.1 | – |
| Cc1oc(-c2ccccc2)nc1COc1ccc(CO/N=C(\CCC(=O)O)c2ccccc2)cc1 [Compound (7), E-4-[4-(5-methyl-2-phenyl-4-oxazolylmethoxy)benzyloxyimino]-4-phenylbutyric acid] | 113.5 ± 5.5 | 160.1 ± 9.0 | 159.4 ± 1.9 | 66.1 ± 1.5 | 173.0 ± 9.9 | 265.5 ± 22.0 | 72.0 ± 1.3 | 95.8 ± 1.4 | 23.7 ± 1.9 | 159.1 ± 6.1 | have foaming-suppressant activity |
